Experimental findings from US9120756B2, “Substituted phenylureas and phenylamides as vanilloid receptor ligands” (Gruenenthal GmbH, priority 2009, dated 2015) are described below.

The first assay deals with hVR1 (Homo sapiens (Human), UniProt Q8NER1). Put plainly: FLIPR Ca2+ influx assay on CHO K1 cells transfected with the VR1 gene, capsaicin stimulus (method II). In kind it is cell-based. On the set-up: key to Ki (human being) Cap: result in words (NE / AG): AG=agonist; pAG=partial agonist; NE=no effect. The conditions noted are these: CHO-K1, read-out: Ki (human being) Cap column: inhibition (as a percentage) @ 5 μM, capsaicin, inhibition determined at 5 μM. The source says: In the process, the Ca^2+ influx is quantified in the FLIPR assay with the aid of a Ca^2+-sensitive dye (type Fluo-4, Molecular Probes Europe BV, Leiden, the Netherlands) in a fluorescent imaging plate reader (FLIPR, Molecular Devices, Sunnyvale, USA), as described hereinafter.
Chain of hVR1 (Q8NER1 whole entry): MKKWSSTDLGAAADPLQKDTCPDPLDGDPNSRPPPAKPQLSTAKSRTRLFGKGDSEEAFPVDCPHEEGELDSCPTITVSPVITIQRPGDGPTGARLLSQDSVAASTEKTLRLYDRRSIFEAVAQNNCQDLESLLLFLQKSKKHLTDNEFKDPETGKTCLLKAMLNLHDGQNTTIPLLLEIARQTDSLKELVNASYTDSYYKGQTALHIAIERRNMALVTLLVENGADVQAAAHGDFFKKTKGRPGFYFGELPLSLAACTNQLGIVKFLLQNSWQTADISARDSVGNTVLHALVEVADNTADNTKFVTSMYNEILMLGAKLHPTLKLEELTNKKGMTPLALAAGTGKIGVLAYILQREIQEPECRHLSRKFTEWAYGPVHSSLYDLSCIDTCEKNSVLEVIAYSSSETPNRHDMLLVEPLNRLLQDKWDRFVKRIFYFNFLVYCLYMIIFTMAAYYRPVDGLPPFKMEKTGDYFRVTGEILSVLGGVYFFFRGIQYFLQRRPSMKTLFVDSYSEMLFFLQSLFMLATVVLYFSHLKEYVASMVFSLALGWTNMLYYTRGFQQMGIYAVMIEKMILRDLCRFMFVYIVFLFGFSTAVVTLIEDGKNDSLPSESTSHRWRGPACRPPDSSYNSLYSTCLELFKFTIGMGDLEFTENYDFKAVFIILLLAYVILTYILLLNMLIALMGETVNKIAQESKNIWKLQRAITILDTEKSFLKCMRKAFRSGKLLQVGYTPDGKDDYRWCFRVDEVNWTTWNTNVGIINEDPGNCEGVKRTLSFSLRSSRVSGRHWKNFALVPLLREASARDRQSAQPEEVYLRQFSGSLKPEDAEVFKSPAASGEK
The agonistic or antagonistic effect of the substances to be tested on the vanilloid receptor 1 (VR1) can also be determined using the following assay. In this assay, the influx of Ca^2+ through the channel is quantified with the aid of a Ca^2+-sensitive dye (type Fluo-4, Molecular Probes Europe BV, Leiden, the Netherlands) in a fluorescent imaging plate reader (FLIPR, Molecular Devices, Sunnyvale, USA).
Chinese hamster ovary cells (CHO K1 cells, European Collection of Cell Cultures (ECACC) United Kingdom) are stably transfected with the VR1 gene. For functional testing, these cells are plated out on poly-D-lysine-coated black 96-well plates having a clear base (BD Biosciences, Heidelberg, Germany) at a density of 25,000 cells/well. The cells are incubated overnight at 37° C. and 5% CO2 in a culture medium (Ham's F12 nutrient mixture, 10% by volume of FCS (foetal calf serum), 18 μg/ml of L-proline). The next day the cells are incubated with Fluo-4 (Fluo-4 2 μM, 0.01% by volume of Pluronic F127, Molecular Probes in HBSS (Hank's buffered saline solution), Gibco Invitrogen GmbH, Karlsruhe, Germany) for 30 minutes at 37° C. Subsequently, the plates are washed three times with HBSS buffer and after further incubation for 15 minutes at RT used for Ca^2+ measurement in a FLIPR assay. The Ca^2+-dependent fluorescence is measured before and after the addition of the substances to be tested (λex wavelength=488 nm, λem=540 nm). Quantification is carried out by measuring the highest fluorescence intensity (FC, fluorescence counts) over time.
The FLIPR protocol consists of 2 substance additions. First the compounds to be tested (10 μM) are pipetted onto the cells and the Ca^2+ influx is compared with the control (capsaicin 10 μM) (% activation based on the Ca^2+ signal after the addition of 10 μM of capsaicin). After 5 minutes' incubation, 100 nM of capsaicin are applied and the Ca^2+ influx is also determined.
Desensitising agonists and antagonists led to suppression of the Ca^2+ influx.
Starting from the percentage displacement caused by different concentrations of the compounds to be tested of general formula I, IC50 inhibitory concentrations which cause a 50-percent displacement of capsaicin were calculated. Ki values for the test substances were obtained by conversion by means of the Cheng-Prusoff equation (Cheng, Prusoff; Biochem. Pharmacol. 22, 3099-3108, 1973).
As for `CC(C)(C)c1nc(CNC(=O)Cc2cccc(F)c2)n(-c2cccc(Cl)c2)n1` [Example 135, N-((3-tert-butyl-1-(3-chlorophenyl)-1H-1,2,4-triazol-5-yl)methyl)-2-(3-fluorophenyl)acetamide], the inhibition at 5 µM came to 24%.
As for `COc1ccc(Cn2nc(C(F)(F)F)cc2CNC(=O)Cc2cccc(F)c2)cc1` [Example 132, 2-(3-fluorophenyl)-N-((1-(4-methoxybenzyl)-3-(trifluoromethyl)-1H-pyrazol-5-yl)methyl)acetamide], the inhibition at 5 µM came to 34%.
In the case of `CN(C(=O)NCc1cc(C(F)(F)F)nn1-c1cccc(Cl)c1)c1cccc(F)c1` [Example 123, 3-((1-(3-chlorophenyl)-3-(trifluoromethyl)-1H-pyrazol-5-yl)methyl)-1-(3-fluorophenyl)-1-methylurea], the inhibition at 5 µM came out at 44%.

The same assay, now with this note: CHO-K1, read-out: Ki (human being) inhibition (as a percentage) @ 1 μM, capsaicin, inhibition determined at 1 μM.
Regarding `O=C(NCc1cc(C(F)(F)F)nn1-c1cccc(Cl)c1)C1(c2cccc(F)c2)CCCC1` [Example 120, N-((1-(3-chlorophenyl)-3-(trifluoromethyl)-1H-pyrazol-5-yl)methyl)-1-(3-fluorophenyl)cyclopentancarboxamide], the inhibition at 1 µM stood at 6%.

The same assay, now with this note: capsaicin.
For the compound `CC(C)(C)c1cc(CNC(=O)C2(c3cccc(F)c3)CC2)n(-c2cccc(Cl)c2)n1` [Example 118, N-((3-tert-butyl-1-(3-chlorophenyl)-1H-pyrazol-5-yl)methyl)-1-(3-fluorophenyl)cyclopropancarboxamide], the “Ki (human being) Cap: result in words (NE / AG)” value is listed as “AG”.

Staying with this assay, now noted: capsaicin (Cap), read-out: Ki (human being) [nM] Cap.
Take `O=C(Cc1cc(F)c(O)c(F)c1)NCc1cc(C(F)(F)F)nn1-c1cccc(Cl)c1` [Example 147, N-((1-(3-chlorophenyl)-3-(trifluoromethyl)-1H-pyrazol-5-yl)methyl)-2-(3,5-difluoro-4-hydroxyphenyl)acetamide]: the Ki came to 26 nM.
As for `CC(C(=O)NCc1cc(C(C)(C)C)nn1-c1cccc(Cl)c1)c1ccc(CNS(C)(=O)=O)c(F)c1` (stereo not shown) [Example 33, N-((3-tert-butyl-1-(3-chlorophenyl)-1H-pyrazol-5-yl)methyl)-2-(3-fluoro-4-(methylsulphonamidomethyl)phenyl)propanamide], the Ki is 4 nM.
Turning to `CC(C(=O)NCc1cc(C(F)(F)F)nn1NCc1ccccn1)c1ccc(CNS(C)(=O)=O)c(F)c1` (stereo not shown) [Example 129, 2-(3-fluoro-4-(methylsulfonamidmethyl)phenyl)-N-((1-(pyridin-2-ylmethylamino)-3-(trifluoromethyl)-1H-pyrazol-5-yl)methyl)propanamide], the inhibitory constant (Ki) turned out to be 63.6 nM.
As to “N-((1-(3-chlorophenyl)-3-cyclopropyl-1H-pyrazol-5-yl)methyl)-2-(3-fluoro-4-(methylsulfonylmethyl)phenyl)propanamide [Example 128]”, the Ki turned out to be 16.3 nM.
The same measure, in the same setting: then `COc1c(F)cc(C(C)C(=O)NCc2cc(C(F)(F)F)nn2-c2cccc(Cl)c2)cc1F` (stereo not shown) [Example 47, N-((1-(3-chlorophenyl)-3-(trifluoromethyl)-1H-pyrazol-5-yl)methyl)-2-(3,5-difluoro-4-methoxyphenyl)propanamide], with 17 nM.
Still for that read-out and setting: then `CC(C(=O)NCc1cc(C(F)(F)F)nn1-c1cccc(Cl)c1)c1cc(F)cc(F)c1` (stereo not shown) [Example 30, N-((1-(3-chlorophenyl)-3-(trifluoromethyl)-1H-pyrazol-5-yl)methyl)-2-(3,5-difluorophenyl)propanamide], with 6.3 nM; and `CC(C(=O)NCc1cc(C(F)(F)F)nn1-c1cccc(Cl)c1)c1ccc(C(=O)Nc2ccc(F)cc2)cc1` (stereo not shown) [Example 40, 4-(1-((1-(3-chlorophenyl)-3-(trifluoromethyl)-1H-pyrazol-5-yl)methylamino)-1-oxopropan-2-yl)-N-(4-fluorophenyl)benzamide], with 0.8 nM.
`CC(C(=O)NCc1cc(C(F)(F)F)nn1-c1cccc(Cl)c1)c1ccc(C(=O)Nc2ccc(C(F)(F)F)cc2)cc1` (stereo not shown) [Example 41, 4-(1-((1-(3-chlorophenyl)-3-(trifluoromethyl)-1H-pyrazol-5-yl)methylamino)-1-oxopropan-2-yl)-N-(4-(trifluoromethyl)phenyl)benzamide]: the Ki turned out to be 85 nM.
